Source: patent publication US8629132B2, “Kinase inhibitors” (Genosco, priority 2009, dated 2014)

Key:
JAK2 = JAK2 (Homo sapiens, UniProt O60674); experiment: In vitro kinase inhibition profile (Ambit Biosciences); type: binding; set-up: JAK2(JH1domain-catalytic); purchased Ambit Biosciences; conditions: reported as percent control, lower numbers indicate stronger activities
Description: Up to 518 different kinases have been identified in humans. To determine the scope of inhibitory effects of a representative compound of Formula (I) on known kinases, Compound 82 was tested against 104 commercially available kinases (Ambit Biosciences™). 104 kinases included ABL1(E255K)-phosphorylated, ABL1(T315I)-phosphorylated, ABL1-phosphorylated, ACVR1B, ADCK3, AKT1, AKT2, ALK, AURKA, AURKB, AXL, BMPR2, BRAF, BRAF(V600E), BTK, CDK11, CDK2, CDK3, CDK7, CDK9, CHEK1, CSF1R, CSNK1D, CSNK1G2, DCAMKL1, DYRK1B, EGFR, EGFR(L858R), EPHA2, ERBB2, ERBB4, ERK1, FAK, FGFR2, FGFR3, FLT1, FLT3, FLT4, GSK3B, IGF1R, IKK-α, IKK-β, INSR, JAK2(JH1domain-catalytic), JAK3 (JH1 domain-catalytic), JNK 1, JNK2, JNK3, KIT, KIT(D816V), KIT(V559D,T6701), LKB1, LRRK2, LRRK2(G2019S), MAP3K4, MAPKAPK2, MARKS, MEK1, MEK2, MET, MKNK1, MKNK2, MLK1, MTOR, p38-alpha, p38-beta, PAK1, PAK2, PAK-4, PCTK1, PDGFRA, PDGFRB, PDPK1, PIK3C2B, PIK3CA, PIK3CG, PIM1, PIM2, PIM3, PKAC-alpha, PLK1, PLK3, PLK4, PRKCE, PYK2, RAF1, RET, R10K2, ROCK2, RSK2, SNARK, SRC, SRPK3, SYK, TAK1, TGFBR1, TIE2, TRKA, TSSK1B, TYK2(JH1domain-catalytic), ULK2, VEGFR2, YANK3 and ZAP70.
Inhibition activity of Compound 82 was reported as percent control where lower numbers indicate stronger activities.

ZAP70 = target: T1, ZAP70 (Homo sapiens, UniProt P43403); experiment: Kinase inhibition assay: ZAP70; type: biochemical; conditions: at 1 μM concentration
T1 construct: Purified full-length human SYK, ZAP70, PIM1, PYK2; purchased Carna Biosciences
T1 sequence (P43403 1-619): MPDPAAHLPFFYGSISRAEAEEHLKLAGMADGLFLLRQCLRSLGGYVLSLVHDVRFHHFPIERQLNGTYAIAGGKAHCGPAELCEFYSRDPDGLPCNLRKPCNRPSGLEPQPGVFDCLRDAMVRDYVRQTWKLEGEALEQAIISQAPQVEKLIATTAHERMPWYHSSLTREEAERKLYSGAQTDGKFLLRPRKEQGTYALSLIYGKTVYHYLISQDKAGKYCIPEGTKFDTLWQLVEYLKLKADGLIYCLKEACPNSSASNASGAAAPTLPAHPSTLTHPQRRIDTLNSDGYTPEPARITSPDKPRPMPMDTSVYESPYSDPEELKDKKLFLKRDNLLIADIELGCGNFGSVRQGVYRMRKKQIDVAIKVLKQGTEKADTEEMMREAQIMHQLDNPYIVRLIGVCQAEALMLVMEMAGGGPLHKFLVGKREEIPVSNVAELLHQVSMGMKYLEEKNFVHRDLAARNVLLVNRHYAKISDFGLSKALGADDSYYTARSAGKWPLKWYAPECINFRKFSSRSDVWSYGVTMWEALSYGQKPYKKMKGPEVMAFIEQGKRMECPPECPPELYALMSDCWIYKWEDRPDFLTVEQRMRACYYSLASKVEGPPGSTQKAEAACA
Description: Compounds of the present invention were tested for their capacity to inhibit a kinase panel which includes, but are not limited to, spleen tyrosine kinase (SYK), zeta-chain-associated protein kinase 70 (ZAP70), PTK2B protein tyrosine kinase 2 (PYK2), focal adhesion kinase (FAK), provirus integration of maloney kinase 1 (PIM1), rearranged during transfection kinase (RET), Fms-like tyrosine kinase 3 (FLT3), Janus kinase 2 (JAK2), and leucine-rich repeat kinase 2 (LRRK2).
Inhibition of SYK, ZAP70, PYK2, FAK, PIM1, RET, FLT3, JAK2 and LRRK2 Kinase Activity
Compounds of the invention were initially diluted to 10 mM in 100% DMSO (CALBIOCHEM™) for storage and made into kinase buffer solution to create a compound concentration ranging from 1 uM and 10 uM. Serial dilutions of compounds of the invention were dispensed into a 96-well plate (GREINER BIOSCIENCES™) at 6 μL each. Purified full-length human SYK, ZAP70, PIM1, PYK2 and truncated human FAK, RET, FLT3, JAK2, and LRRK2 (CARNA BIOSCIENCES™) were diluted in kinase buffer and added to the compound solutions and pre-incubated for 30 minutes at room temperature (1 hour for PYK2). […] The reaction mixture was incubated for 1 hour (2 hours for PYK2). Following the incubation, the stop solution made with EDTA, water, and Lance detection buffer ([…]™) was added (12μL each) to stop phosphorylation. […] The IC50 value of test compound was calculated at Gradpad Prism 5 unless specified otherwise.

JAK2, sequence (O60674 849-1124 limits assumed): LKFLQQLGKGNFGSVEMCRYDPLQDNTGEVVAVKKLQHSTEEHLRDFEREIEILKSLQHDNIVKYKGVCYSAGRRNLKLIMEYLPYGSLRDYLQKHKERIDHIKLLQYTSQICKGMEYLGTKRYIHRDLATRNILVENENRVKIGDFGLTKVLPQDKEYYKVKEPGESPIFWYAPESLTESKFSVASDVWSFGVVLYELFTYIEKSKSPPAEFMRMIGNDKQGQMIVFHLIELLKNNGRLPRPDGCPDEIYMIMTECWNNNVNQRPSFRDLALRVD

| % of control (JAK2) [%] | inhibition at 1 µM (ZAP70) [%] | Compound |
| --- | --- | --- |
| 3 |  | Cc1cc(C)cc(Nc2ncc(F)c(-n3cc(C)c(CN4CC[C@@H](O)C4)c3)n2)c1 [Compound 82, (R)-1-((1-(2-(3,5-dimethylphenyl-amino)-5-fluoropyrimidin-4-yl)-4-methyl-1H-pyrrol-3-yl)methyl) pyrrolidin-3-ol] |
|  | 54.6 | COc1cc(Nc2ncc(C)c(-n3cc(C)c(CO)c3)n2)cc(OC)c1OC [Compound 21, (4-methyl-1-(5-methyl-2-(3,4,5-trimethoxyphenylamino)pyrimidin-4-yl)-1H-pyrrol-3-yl)methanol] |
